Format in all cases: cell-based, human
One assay concerns HepG2 cells. Put plainly: 3D organoid culture of HepG2 cells (HepGOs): organoid counts. To be noted: compared to serum-containing growth media (HepG2 GM) (FIG. 3B). The text has this:
Well-differentiated hepatoma cell lines HepG2, PLC/PRF/5, and HuH7 were maintained as previously described. In initial studies, classical culture media was used, containing high glucose concentration (4.5 g/L) corresponding to systemic hyperglycemia. Low glucose concentrations corresponding to normoglycemia (1 g/L) were utilized in parallel to study the effects on cell proliferation. HepG2 cells were first cultured in monolayer. Once 80-90% confluence was reached the cells were collected and used to start the organoid culture. HepGOs were generated on 48 well tissue culture plates (Grenier™). The plates were left overnight at 37° C. before using them to plate the Matrigel™ matrix. Cells were plated at a concentration of approximately 40 cells per μL of Matrigel™. We used a 25 μL drop/well to form the organoid dome at the center and the organoid dome were overlaid with 250 μLs of human expansion medium (EM) with the multiple EM variations tested. The plates were then incubated for 7 days under standard tissue culture conditions (37° C. and 5% CO2). Media was changed every other day. After 7 days of expansion, the media was replaced with differentiation media (DM). The organoids were cultured for an additional 7 days, at which point the organoids were used for analysis.

For the next assay, the system named is primary hepatocytes. Description: 3D organoid culture of adult donor-derived primary hepatocytes (HepAOs): organoid formation and expansion. Particulars: single hepatocyte suspensions from adult donors, supplemented EM, over 2 weeks (FIG. 1E). Here is the method:
Human hepatic cells were counted and seeded at a concentration of 100 cells per μL of the ECM Matrigel™ (Corning™). The cell-ECM mix were seeded on 24 well plates Greiner™) that had been incubated 24 hours prior at 37° C. A total of 50 μL of Matrigel™ were added to the center of each well to form a dome shaped chamber and incubated for 5-8 minutes at 37° C. before adding 500 μμL of isolation medium to each well. Media specifications and storage times are indicated.
After 4 days, the isolation medium was substituted for expansion medium (EM) containing 10 μM ROCK inhibitor (Y-27632). The EM was replenished three times per week.
After the first 6 days in culture, the ROCK inhibitor was removed from the media. The cells within the ECM mix were expanded for 14 days to form organoids. After 14 days, the media was supplemented with 25 ng/mL of BMP7, and the organoids were cultured for 5 days before replacing the media with hepatocyte differentiation medium (DM). The DM were replenished every 3 days. At day 7 of differentiation, the organoids were used for analyses. […]
We assessed the organoid-forming efficiency at one week in single cell derived organoids (FIG. 1B and FIG. 1C). […]

Another assay concerns HepGOs. Put plainly: Glucose production assay in HepGOs. To be noted: HepGOs expanded in EM+F+OSM, 24-hour starvation, 24 hours production (FIG. 7D). On the procedure: Prior to each glucose production assay, organoid cells were serum starved for 3 and 24 hours. The assay was done in 3D organoid culture media, containing no glucose or pyruvate. For substrate glucose production assays, the glucose production basal media (BM) were supplemented with either glycerol, glucagon, or a combination of both. Data were obtained by obtaining media from wells that contained 12-14 Matrigel™ droplets containing approximately 1,400 organoids. Glucose measurements were done enzymatically with a Glucose Assay Kit (Abcam™).
The HepGOs were starved for 3 or 24 hours and then allowed to produce glucose for 24 hours. The glucose production basal media (BM) was supplemented with either glycerol, glucagon, or a combination of the two. Data was obtained pooled organoids with a total of ˜70,000 organoid cells. The scale bar is 100 μm. (**p<0.01, *p<0.05).

In the next assay the test system is PCK1. Put plainly: Q-PCR expression of PCK1 in organoids. To be noted: fresh or frozen and re-expanded organoids, EM conditions C3-C5 (FIG. 5). Here is the method: (§1) RNA was first extracted from the differentiated organoids using Trizol™. RNA was used for cDNA synthesis using the iScript Kit (BioRad™). Quantitative PCR (Q-PCR) was performed for targets of interest including G6PC, PCK1, and AFP using Bio-Rad™ CFX96. Bio Rad™'s SYBR Green (SG), a asymmetrical cyanine dye used as a nucleic acid stain in Q-PCR super mix was used with the target-specific primers. See Table 3, below for a description of the primers used for hepatocyte expression. The data was analyzed using Excel™ and Prism 8™.
(§2) HepGOs were expanded for one month, and then media were supplemented with 25 ng/mL BMP7 for 5 days before replacing the media with hepatocyte DM for one week. The data are from experiments that were done in at least in duplicate with three replicates per condition and were normalized to the endogenous control (β-Actin) and HepG2 GM cultures. The scale bar is 100 μm.

The subject of a further assay is G6PC. Description: Q-PCR expression of G6PC in organoids. Particulars: fresh or frozen and re-expanded organoids, EM conditions C3-C5 (FIG. 5). Here is the method: as §1, §2

On to `Cc1cccc(-c2nn(C(=S)Nc3ccccc3)cc2-c2ccnc3ccccc23)n1` [A8301], for which the HepGO number result in the assay on HepG2 cells was “significantly limited the 3D culture and expansion of HepG2 cells”. In the assay with primary hepatocytes, the “number of organoids formed / expansion” value was “showed the least number of organoids being formed”.

As to glucagon, the glucose production result in the assay on HepGOs was “significantly enhanced glucose production”.

B1: OSM: oncostatin M, a member of the IL-6 family of cytokines (protein, UniProt P13725 26-221, looked up)
Oncostatin-M: AAIGSCSKEYRVLLGQLQKQTDLMQDTSRLLDPYIRIQGLDVPKLREHCRERPGAFPSEETLRGLGRRGFLQTLNATLGCVLHRLADLEQRLPKAQDLERSGLNIEDLEKLQMARPNILGLRNNIYCMAQLLDNSDTAEPTKAGRGASQPPTPTPASDAFQRKLEGCRFLHGYHRFMHSVGRVFSKWGESPNRSRR
For B1, the “induction of PCK1 expression” value with PCK1 is listed as “tend to decrease at one month post differentiation”. In addition, the “induction of G6PC expression” value with G6PC is “tend to decrease at one month post differentiation”.

B2: BMP7: bone morphogenetic protein 7 (protein, UniProt P18075 293-431, looked up)
Bone morphogenetic protein 7: STGSKQRSQNRSKTPKNQEALRMANVAENSSSDQRQACKKHELYVSFRDLGWQDWIIAPEGYAAYYCEGECAFPLNSYMNATNHAIVQTLVHFINPETVPKPCCAPTQLNAISVLYFDDSSNVILKKYRNMVVRACGCH
Consider B2, for which the HepGO number entry with HepG2 cells was “slightly but not significantly improved HepGO number”.
